Reference: PubChem BioAssay (NCI)
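Dose response: 5 concentrations. Exposure: 48 h. Format: 96-well plates. Endpoint: linear interpolation; highest concentration if not reached. At the TGI there is no net growth.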

Key:
Assay in all cases: inhibition of tumour cell growth, NCI panel, 48 h
[1] = tested on: 786-0 renal
[2] = tested on: A498 renal
[3] = tested on: A549 NSCLC
[4] = tested on: ACHN renal
[5] = tested on: BT-549 breast
[6] = tested on: CAKI-1 renal
[7] = tested on: CCRF-CEM leukemia
[8] = tested on: COLO 205 colon
[9] = tested on: DU-145 prostate
[10] = tested on: EKVX NSCLC
[11] = tested on: HCC-2998 colon
[12] = tested on: HCT-116 colon
[13] = tested on: HOP-62 NSCLC
[14] = tested on: HOP-92 NSCLC
[15] = tested on: HT29 colon
[16] = tested on: IGROV1 ovarian
[17] = tested on: K-562 leukemia
[18] = tested on: KM12 colon
[19] = tested on: LOX IMVI melanoma
[20] = tested on: M14 melanoma
[21] = tested on: MALME-3M melanoma
[22] = tested on: MCF7 breast
[23] = tested on: MDA-MB-231 breast
[24] = tested on: MDA-MB-435
[25] = tested on: MDA-N
[26] = tested on: MOLT-4 leukemia
[27] = tested on: NCI-H226 lung
[28] = tested on: NCI-H23 lung
[29] = tested on: NCI-H460 lung
[30] = tested on: NCI/ADR-RES ovarian
[31] = tested on: OVCAR-4 ovarian
[32] = tested on: OVCAR-5 ovarian
[33] = tested on: OVCAR-8 ovarian
[34] = tested on: PC-3 prostate
[35] = tested on: RPMI-8226 leukemia
[36] = tested on: RXF 393 renal
[37] = tested on: SF-268 CNS
[38] = tested on: SF-295 CNS
[39] = tested on: SF-539 CNS
[40] = tested on: SK-MEL-2 melanoma
[41] = tested on: SK-MEL-28 melanoma
[42] = tested on: SK-MEL-5 melanoma
[43] = tested on: SK-OV-3 ovarian
[44] = tested on: SN12C renal
[45] = tested on: SNB-75 CNS
[46] = tested on: SW-620 colon
[47] = tested on: T-47D breast
[48] = tested on: TK-10 renal
[49] = tested on: U251 CNS
[50] = tested on: UACC-257 melanoma
[51] = tested on: UACC-62 melanoma
[52] = tested on: HCT-15 colon
[53] = tested on: HS 578T breast
[54] = tested on: NCI-H522 lung
[55] = tested on: OVCAR-3 ovarian
[56] = tested on: SNB-19 CNS
[57] = tested on: SR leukemia
[58] = tested on: UO-31 renal

## O=C1C2=Cc3ccccc3OC2(O)Oc2cc(O)cc(O)c21 (stereo not drawn)
[1]
  TGI: > 100 µM
[2]
  TGI: > 100 µM
[3]
  TGI: > 100 µM
[4]
  TGI: > 100 µM
[5]
  TGI: > 100 µM
[6]
  TGI: > 100 µM
[7]
  TGI: > 100 µM
[8]
  TGI: > 100 µM
[9]
  TGI: > 100 µM
[10]
  TGI: > 100 µM
[11]
  TGI: > 100 µM
[12]
  TGI: > 100 µM
[13]
  TGI: > 100 µM
[14]
  TGI: > 100 µM
[15]
  TGI: > 100 µM
[16]
  TGI: > 100 µM
[17]
  TGI: > 100 µM
[18]
  TGI: > 100 µM
[19]
  TGI: > 100 µM
[20]
  TGI: > 100 µM
[21]
  TGI: > 100 µM
[22]
  TGI: > 100 µM
[23]
  TGI: > 100 µM
[24]
  TGI: > 100 µM
[25]
  TGI: > 100 µM
[26]
  TGI: > 100 µM
[27]
  TGI: > 100 µM
[28]
  TGI: > 100 µM
[29]
  TGI: > 100 µM
[30]
  TGI: > 100 µM
[31]
  TGI: > 100 µM
[32]
  TGI: > 100 µM
[33]
  TGI: > 100 µM
[34]
  TGI: > 100 µM
[35]
  TGI: > 100 µM
[36]
  TGI: > 100 µM
[37]
  TGI: > 100 µM
[38]
  TGI: > 100 µM
[39]
  TGI: > 100 µM
[40]
  TGI: > 100 µM
[41]
  TGI: > 100 µM
[42]
  TGI: > 100 µM
[43]
  TGI: > 100 µM
[44]
  TGI: > 100 µM
[45]
  TGI: > 100 µM
[46]
  TGI: > 100 µM
[47]
  TGI: > 100 µM
[48]
  TGI: > 100 µM
[49]
  TGI: > 100 µM
[50]
  TGI: > 100 µM
[51]
  TGI: > 100 µM

## Cc1[nH]n(-c2ncc(C#N)c(=O)[nH]2)c(=O)c1CCO
[1]
  TGI: > 100 µM
[2]
  TGI: > 100 µM
[3]
  TGI: > 100 µM
[4]
  TGI: > 100 µM
[6]
  TGI: > 100 µM
[7]
  TGI: > 100 µM
[8]
  TGI: > 100 µM
[9]
  TGI: > 100 µM
[10]
  TGI: > 100 µM
[11]
  TGI: > 100 µM
[12]
  TGI: > 100 µM
[52]
  TGI: > 100 µM
[13]
  TGI: > 100 µM
[14]
  TGI: > 100 µM
[53]
  TGI: > 100 µM
[15]
  TGI: > 100 µM
[16]
  TGI: > 100 µM
[17]
  TGI: > 100 µM
[18]
  TGI: > 100 µM
[19]
  TGI: > 100 µM
[20]
  TGI: > 100 µM
[21]
  TGI: > 100 µM
[22]
  TGI: > 100 µM
[23]
  TGI: > 100 µM
[24]
  TGI: > 100 µM
[25]
  TGI: > 100 µM
[26]
  TGI: > 100 µM
[27]
  TGI: > 100 µM
[28]
  TGI: > 100 µM
[29]
  TGI: > 100 µM
[54]
  TGI: > 100 µM
[30]
  TGI: > 100 µM
[55]
  TGI: > 100 µM
[31]
  TGI: > 100 µM
[32]
  TGI: > 100 µM
[33]
  TGI: > 100 µM
[34]
  TGI: > 100 µM
[35]
  TGI: > 100 µM
[36]
  TGI: > 100 µM
[37]
  TGI: > 100 µM
[38]
  TGI: > 100 µM
[39]
  TGI: > 100 µM
[40]
  TGI: > 100 µM
[41]
  TGI: > 100 µM
[42]
  TGI: > 100 µM
[43]
  TGI: > 100 µM
[44]
  TGI: > 100 µM
[56]
  TGI: > 100 µM
[45]
  TGI: 99 µM
[57]
  TGI: > 100 µM
[46]
  TGI: > 100 µM
[47]
  TGI: > 100 µM
[48]
  TGI: > 100 µM
[49]
  TGI: > 100 µM
[50]
  TGI: > 100 µM
[51]
  TGI: > 100 µM
[58]
  TGI: > 100 µM
